The term inhibition denotes how much of the control response was suppressed. For orientation: melting point means the temperature, or range, at which the solid turns liquid.

17 molecules from patent publication US7071340B2, “Fungicidal 1-benzoxepin derivatives” (Bayer Cropscience S.A., priority 2001, dated 2006) can be followed below.

Each structure is given as a SMILES string.

One data set deals with Septoria nodorum. The data set can be described thus: Biological test on isolated fungi in culture medium, 96-well microplates (Example B2). It is filed as cell-based. Conditions: Parastagonospora nodorum, 120 h; dose of 50 ppm; culturing 5 days at 20° C.; optical density at 620 nm or 405 nm; read-out: inhibition of Septoria nodorum (percentage of inhibition of the growth, Abbott's formula). The protocol: (§1) The test is carried out on isolated fungi in a culture medium, in 96-well microplates. The products are dissolved in acetonitrile and are then diluted to 1/50th in methanol, so as to distribute 50 μl for a dose of 50 ppm in each well. Once the compounds are distributed, the microplates are dried under a stream of nitrogen at 40° C. The culture medium and the inoculum are subsequently added.
(§2) The growth of the fungi is measured after culturing for 5 days at 20° C. by reading the optical density at 620 nm or 405 nm, depending on the strains. The effectiveness of the product is the percentage of inhibition of the growth of the fungi calculated according to Abbott's formula, the absorbance of the growth control wells and the absorbance of the treated wells being taken as reference values.
At a dose of 50 ppm, complete or good (at least 70%) inhibition of Septoria nodorum is observed with the compounds described in the following examples: 5, 28, 29, 30, 32, 33, 34, 40, 55, 57, 63, 65, 67, 68, 70, 72, 82 and 86.

A further data set deals with Botrytis cinerea. Kind of data set: Biological test on isolated fungi in culture medium, 96-well microplates (Example B1). It is filed as cell-based. Conditions: 120 h, dose of 50 ppm, culturing 5 days at 20° C., optical density at 620 nm or 405 nm, read-out: inhibition of Botrytis cinerea (percentage of inhibition of the growth, Abbott's formula). As for the experimental part:
as §1, §2
At a dose of 50 ppm, complete or good (at least 70%) inhibition of Botrytis cinerea is observed with the compounds described in the following examples: 28, 32, 47, 65, 68 and 70.

A further data set relates to Monilia fructigena. Kind of data set: Biological test on isolated fungi in culture medium, 96-well microplates (Example B3). It is filed as cell-based. Conditions: 120 h, dose of 50 ppm, culturing 5 days at 20° C., optical density at 620 nm or 405 nm, read-out: inhibition of Monilia fructigena (percentage of inhibition of the growth, Abbott's formula). The protocol:
as §1, §2
At a dose of 50 ppm, complete or good (at least 70%) inhibition of Monilia fructigena is observed with the compounds described in the following examples: 28, 32 and 70.

A further data set concerns Magnaporthe orysae. Kind of data set: tissue or blood. Conditions: 120 h, read-out: inhibition of Magnaporthe orysae (percentage of inhibition of the growth, Abbott's formula). Type of data set: cell-based.
A further data set concerns Rhizoctonia solani. The data set can be described thus: Biological test on isolated fungi in culture medium, 96-well microplates (Example B6). It is filed as cell-based. Conditions: 120 h, dose of 50 ppm, culturing 5 days at 20° C., optical density at 620 nm or 405 nm, read-out: inhibition of Rhizoctonia solani (percentage of inhibition of the growth, Abbott's formula). As for the experimental part: as §1, §2
At a dose of 50 ppm, complete or good (at least 70%) inhibition of Rhizoctonia solani is observed with the compounds described in the following examples: 28, 32, 55, 68 and 70.

Data set [1] concerns Mycosphaerella graminacola. The data set can be described thus: Biological test on isolated fungi in culture medium, 96-well microplates (Example B7). Type of data set: cell-based. Conditions: 120 h, dose of 50 ppm, culturing 5 days at 20° C., optical density at 620 nm or 405 nm, read-out: inhibition of Mycosphaerella graminacola (percentage of inhibition of the growth, Abbott's formula). The protocol:
as §1, §2
At a dose of 50 ppm, complete or good (at least 70%) inhibition of Mycosphaerella graminacola is observed with the compounds described in the following examples: 28, 32, 55 and 70.

The next data set relates to Venturia pirina. The data set can be described thus: Biological test on isolated fungi in culture medium, 96-well microplates (Example B8). Conditions: Venturia pyrina, 120 h; dose of 50 ppm; culturing 5 days at 20° C.; optical density at 620 nm or 405 nm; read-out: inhibition of Venturia pirina (percentage of inhibition of the growth, Abbott's formula). Type of data set: cell-based. The protocol: as §1, §2
At a dose of 50 ppm, complete or good (at least 70%) inhibition of Venturia pirina is observed with the compounds described in the following example: 28.

In the case of `COC(=O)c1ccc2c(c1)CCC(=CCl)CO2` [Example 5, methyl 3-(chloromethylene)-2,3,4,5-tetrahydro-1-benzoxepin-7-carboxylate], the inhibition at 50 ppm in the data set on Septoria nodorum was no less than 70%.
As to `C=C1COc2ccc(C(=O)OC)cc2C(Cc2ccccc2)(S(=O)(=O)c2ccccc2)C1` (stereo not shown) [Example 6, methyl 5-benzyl-3-methylene-5-(phenylsulfonyl)-2,3,4,5-tetrahydro-1-benzoxepin-7-carboxylate], the melting point was 164 to 165 °C.
Still for that read-out and setting: as for `C=C1COc2ccc(C(C)=O)cc2C(S(=O)(=O)c2ccccc2)C1` (stereo not shown) [Example 13, 1-[3-methylene-5-(phenylsulfonyl)-2,3,4,5-tetrahydro-1-benzoxepin-7-yl]ethanone], the figure is 124 to 125 °C; as for `CC(=O)c1ccc2c(c1)CCC(=O)CO2` [Example 16, 7-acetyl-4,5-dihydro-1-benzoxepin-3(2H)-one], 80 to 82 °C; as for `C=C1COc2ccc(C(C)=O)cc2C(Cc2ccccc2)(S(=O)(=O)c2ccccc2)C1` (stereo not shown) [Example 18, 1-[5-benzyl-3-methylene-5-(phenylsulfonyl)-2,3,4,5-tetrahydro-1-benzoxepin-7-yl]ethanone], 131 to 132 °C.
With `CC(=O)c1ccc2c(c1)C=CC(=CCl)CO2` [Example 28, 1-[3-(chloromethylene)-2,3-dihydro-1-benzoxepin-7-yl]ethanone], the inhibition at 50 ppm (in the data set on Botrytis cinerea; in the data set on Septoria nodorum; with Monilia fructigena; in the data set with Magnaporthe orysae; with Rhizoctonia solani; in data set [1]) was no less than 70% throughout. Moreover, the inhibition at 50 ppm with Venturia pirina is no less than 70%.
As for `CC(=O)c1ccc2c(c1)C(Cc1ccccc1)=CC(=O)CO2` [Example 29, 7-acetyl-5-benzyl-1-benzoxepin-3(2H)-one], the inhibition at 50 ppm in the data set on Septoria nodorum is no less than 70%.
Consider `CC(=O)c1ccc2c(c1)C(Cc1ccccc1)=CC(=CCl)CO2` [Example 30, 1-[5-benzyl-3-(chloromethylene)-2,3-dihydro-1-benzoxepin-7-yl]ethanone], for which the inhibition at 50 ppm with Septoria nodorum was no less than 70%.
`COC(=O)c1ccc2c(c1)C=CC(=O)CO2` [Example 31, methyl 3-oxo-2,3-dihydro-1-benzoxepin-7-carboxylate] yielded a melting point of 98 °C.
`COC(=O)c1ccc2c(c1)C=CC(=CCl)CO2` [Example 32, methyl 3-(chloromethylene)-2,3-dihydro-1-benzoxepin-7-carboxylate] returned a melting point of 72 to 77 °C. The inhibition at 50 ppm with Botrytis cinerea was no less than 70%. In the data set on Septoria nodorum, the inhibition at 50 ppm is no less than 70%. Moreover, in the data set on Monilia fructigena, the inhibition at 50 ppm was no less than 70%. The inhibition at 50 ppm with Magnaporthe orysae is no less than 70%. In addition, the inhibition at 50 ppm in the data set on Rhizoctonia solani is no less than 70%. Besides, the inhibition at 50 ppm in data set [1] was no less than 70%.
Consider `COC(=O)c1ccc2c(c1)C(Cc1ccccc1)=CC(=O)CO2` [Example 33, methyl 5-benzyl-3-oxo-2,3-dihydro-1-benzoxepin-7-carboxylate], for which the inhibition at 50 ppm in the data set with Septoria nodorum was no less than 70%.
Still for that read-out and setting: as for `COC(=O)c1ccc2c(c1)C(Cc1ccccc1)=CC(=CCl)CO2` [Example 34, methyl 5-benzyl-3-(chloromethylene)-2,3-dihydro-1-benzoxepin-7-carboxylate], the figure is no less than 70%.
On to `C=C1C=Cc2cc(C(=O)O)ccc2OC1` [Example 40, 3-methylene-2,3-dihydro-1-benzoxepin-7-carboxylic acid], for which the melting point amounted to 188 °C. Moreover, in the data set on Septoria nodorum, the inhibition at 50 ppm was no less than 70%.
With `C=C1C=Cc2cc(C(=O)Nc3ccccc3)ccc2OC1` [Example 41, 3-methylene-N-phenyl-2,3-dihydro-1-benzoxepin-7-carboxamide], the melting point came to 139 °C.
Same read-out and setting: in the case of `COC(=O)c1ccc2c(c1)C=CC(=C(Cl)Cl)CO2` [Example 54, methyl 3-(dichloromethylene)-2,3-dihydro-1-benzoxepin-7-carboxylate] it was 119 to 121 °C.
Turning to `O=C(O)c1ccc2c(c1)C=CC(=CCl)CO2` [Example 63, 3-(chloromethylene)-2,3-dihydro-1-benzoxepin-7-carboxylic acid], the melting point was greater than 260 °C. Moreover, the inhibition at 50 ppm in the data set on Septoria nodorum is no less than 70%.
Consider `O=Cc1ccc2c(c1)C=CC(=CCl)CO2` [Example 72, 3-(chloromethylene)-2,3-dihydro-1-benzoxepin-7-carbaldehyde], for which, in the data set with Septoria nodorum, the inhibition at 50 ppm was no less than 70%.
